In US12371432B2, “Haloallylamine compounds and application thereof” (TransThera Sciences (Nanjing), Inc., priority 2019, dated 2025):
Where a name gives a salt, the structure may show the parent alone.

Target: T1, rhAOC1 (Homo sapiens, UniProt P19801)
T1 construct: purchased R&D
T1 sequence (P19801 20-751): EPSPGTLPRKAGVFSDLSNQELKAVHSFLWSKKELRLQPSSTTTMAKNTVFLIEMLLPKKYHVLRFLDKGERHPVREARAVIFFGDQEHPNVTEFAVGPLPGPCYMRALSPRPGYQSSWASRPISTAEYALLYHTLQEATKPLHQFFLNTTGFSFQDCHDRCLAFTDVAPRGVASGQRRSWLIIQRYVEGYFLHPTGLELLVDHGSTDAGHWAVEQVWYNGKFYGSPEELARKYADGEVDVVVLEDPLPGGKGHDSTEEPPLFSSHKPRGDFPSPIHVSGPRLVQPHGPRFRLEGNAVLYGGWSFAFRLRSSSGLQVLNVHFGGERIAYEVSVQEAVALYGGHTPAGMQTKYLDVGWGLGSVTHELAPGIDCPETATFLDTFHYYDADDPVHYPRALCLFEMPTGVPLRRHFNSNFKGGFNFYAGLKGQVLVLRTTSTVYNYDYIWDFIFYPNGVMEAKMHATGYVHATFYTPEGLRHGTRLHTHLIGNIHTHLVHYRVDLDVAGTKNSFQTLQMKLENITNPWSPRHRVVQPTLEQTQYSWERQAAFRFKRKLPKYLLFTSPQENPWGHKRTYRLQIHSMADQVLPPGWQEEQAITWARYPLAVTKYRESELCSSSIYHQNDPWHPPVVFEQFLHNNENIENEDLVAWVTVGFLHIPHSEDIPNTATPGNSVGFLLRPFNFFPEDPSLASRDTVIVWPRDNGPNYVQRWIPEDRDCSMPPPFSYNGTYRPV
Assay: Selectivity against rhAOC1 enzyme (Biological Example 2)
Type: biochemical
Conditions: Table 2; histamine substrate, Amplex Red/HRP
Description: 2. Selectivity of Compounds Against rhAOC1 Enzyme
(1) Instrument, Consumable and Reagent
Microplate reader (Perkin Elmer, Nivo 5S), black unclear-bottom 96-well plate (Corning) and rhAOC1 (R&D)
(2) Preparation of Concentration Gradient Compound Solutions
An appropriate amount of the compound to be tested was taken, dissolved in DMSO to 10 mM and then stored. Before the study, an appropriate amount of mother liquor of the 10 mM compound to be tested was taken and gradiently diluted 3-fold with DMSO, 10 concentration gradients in total. Each concentration gradient was then diluted 10-fold with 0.1 M of PBS.
(3) Preparation of Enzyme Solutions
An appropriate amount of rhAOC1 mother liquor with a concentration of 0.441 mg/mL was taken and diluted with an appropriate amount of 50 mM HEPES buffer solution to obtain enzyme solutions of 4× concentrations.
(4) Preparation of Substrate Mixtures of 2× Concentrations
An appropriate amount of histamine was weighed and dissolved with 50 mM of HEPES buffer solution to obtain 20 mM of histamine solution. The histamine solution was added with 2 mM of Amplex Red mother liquor and 500 U/mL of HRP mother liquor and diluted with 50 mM of HEPES buffer solution to obtain substrate mixtures of 2× concentrations.
10 μL compound solutions of different concentrations, 25 μL rhAOC1 enzyme solutions of 4× concentrations and 15 μL of 50 mM HEPES buffer solution were first added into a 96-well plate, shaken to be mixed uniformly and then incubated at 37° C. for 30 min. 50 μL substrate mixtures of 2× concentrations were then added into each well, and the microplate reader was immediately used to detect fluorescence intensity of each well with 580 nm (20 nm) exciting light and 620 nm (10 nm) emission light for 5 min each time, 30 min in total. The inhibition rate was calculated according to the following formula: V (RFU/min)=(Ft (RFU)−F0 (RFU))/(time(min)) Inhibition rate (%)=100%−Vcmpd (RFU/min)/Vmax (RFU/min)×100%
V: fluorescence change rate; Ft: fluorescence reading at time point t; F0: initial fluorescence reading; Time: duration t; Vcmpd: fluorescence change rate of tested compound; Vmax: Max hole fluorescence change rate.
(6) Fitting of Dose-Response Curve
With the log value of concentration as the X axis and the percent inhibition rate as the Y axis, the log (inhibitor) vs. response-variable slope of analysis software GraphPad Prism 5 was used to fit a dose-response curve, thus obtaining the IC50 value of activity of each compound against the enzyme.

IC50	Structure (SMILES)
8.95 µM	CCN1CCc2nn(C/C(=C/F)CN)cc2C1=O [Compound A6 hydrochloride, (E)-2-(2-(aminomethyl)-3-fluoroallyl)-5-ethyl-2,5,6,7-tetrahydro-4H-pyrazolo[4,3-c]pyridin-4-one]
50 µM	CC(C)(C)N1CCc2nn(C/C(=C/F)CN)cc2C1=O [Compound A7 hydrochloride, (E)-2-(2-(aminomethyl)-3-fluoroallyl)-5-tert-butyl-2,5,6,7-tetrahydro-4H-pyrazolo[4,3-c]pyridin-4-one]
14.8 µM	NC/C(=C\F)Cn1cc2c(c1)C(=O)N(C1CC1)CC2 [Compound A22, (E)-2-(2-(aminomethyl)-3-fluoroallyl)-5-cyclopropyl-2,5,6,7-tetrahydro-4H-pyrrolo[3,4-c]pyridin-4-one]
11.5 µM	CCN1CCc2cn(C/C(=C/F)CN)cc2C1=O [Compound A25, (E)-2-(2-(aminomethyl)-3-fluoroallyl)-5-ethyl-2,5,6,7-tetrahydro-4H-pyrrolo[3,4-c]pyridin-4-one]
4.06 µM	CCn1ccc2nn(C/C(=C/F)CN)cc2c1=O [Compound A28 hydrochloride, (E)-2-(2-(aminomethyl)-3-fluoroallyl)-5-ethyl-2,5-dihydro-4H-pyrazolo[4,3-c]pyridin-4-one]
0.674 µM	CCn1ccc2c(cnn2C/C(=C/F)CN)c1=O [Compound A29 hydrochloride, (E)-1-(2-(aminomethyl)-3-fluoroallyl)-5-ethyl-1,5-dihydro-4H-pyrazolo[4,3-c]pyridin-4-one]
23.6 µM	Cl.NC/C(=C\F)Cn1cc2c(c1Br)CCN(C1CC1)C2=O [Compound A32 hydrochloride, (E)-2-(2-(aminomethyl)-3-fluoroallyl)-1-bromo-5-cyclopropyl-2,5,6,7-tetrahydro-4H-pyrrolo[3,4-c]pyridin-4-one]
> 100 µM	NC/C(=C\F)Cn1c(Br)c2c(c1Br)C(=O)N(C1CC1)CC2 [Compound A33 hydrochloride, (E)-2-(2-(aminomethyl)-3-fluoroallyl)-1,3-dibromo-5-cyclopropyl-2,5,6,7-tetrahydro-4H-pyrrolo[3,4-c]pyridin-4-one]
7.03 µM	Cc1c2c(cn1C/C(=C/F)CN)C(=O)N(C1CC1)CC2 [Compound A35 hydrochloride, (E)-2-(2-(aminomethyl)-3-fluoroallyl)-5-cyclopropyl-1-methyl-2,5,6,7-tetrahydro-4H-pyrrolo[3,4-c]pyridin-4-one]
9.65 µM	NC/C(=C\F)Cn1cc2c(=O)n(C3CC3)ccc2n1 [Compound A41, (E)-2-(2-(aminomethyl)-3-fluoroallyl)-5-cyclopropyl-2,5-dihydro-4H-pyrazolo[4,3-c]pyridin-4-one]
28.9 µM	Cl.NC/C(=C\F)Cn1cc2c(c1Cl)CCN(C1CC1)C2=O [Compound A42 hydrochloride, (E)-2-(2-(aminomethyl)-3-fluoroallyl)-1-chloro-5-cyclopropyl-2,5,6,7-tetrahydro-4H-pyrrolo[3,4-c]pyridin-4-one]
3.18 µM	CNC(=O)c1cnn(C/C(=C/F)CN)c1 [Compound B1, (E)-1-(2-(aminomethyl)-3-fluoroallyl)-N-methyl-1H-pyrazole-4-carboxamide]
